# Laboratory results published in ChEMBL document CHEMBL1201862, “PubChem BioAssay data set” (2004).
# Active and inactive are the calls of the source.
# Columns and labels:
# [1] = tested on: BJ; assay: cells; type: functional, cell-based; conditions: Homo sapiens
# [2] = tested on: BJ; assay: BJ-TERT fibroblast viability loss – cell-based, RAS-independent, luminescence, dose response (AID 1933); type: functional; conditions: Homo sapiens
# [3] = tested on: BJ; assay: BJ-TERT-LT-ST fibroblast viability loss – cell-based, RAS-independent, luminescence, dose response (AID 1935); type: functional; conditions: Homo sapiens;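 further: BJ fibroblasts immortalized with TERT plus LT and ST oncogenes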
# [4] = DRD fibroblast viability loss – cell-based, non-viral oncogenic, luminescence, dose response (AID 1934); type: functional; conditions: Homo sapiens
# [5] = target: FAD-linked sulfhydryl oxidase ALR (Homo sapiens, UniProt P55789); assay: ALR-catalysed DTT oxidation blockers – biochemical, H2O2 detection, luminescence, cherry-pick, dose response (AID 493248)
# [6] = target: Large T antigen (Simian virus 40, UniProt P03070); type: functional, Betapolyomavirus macacae;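 further: Confirmatory-stage PubChem screen for compounds that inhibit SV40 T antigen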
# [7] = target: Genome polyprotein (dengue virus type 2, UniProt P29990); assay: flavivirus cap methylation enzyme inhibition – biochemical, confirmation dose response, primary screen (AID 588689); type: functional
# [8] = Luminescence Cell-Based Dose Response HTS to Identify Activators of Luciferase Translation or Activity in H4 […] Cells. [Related pubchem assays: 1829 (Project Summary), 1814 (Primary HTS)]; type: functional
# [9] = tested on: H4; assay: Luminescence Cell-Based Dose Response HTS to Identify Activators of 5'UTR Stem-Loop Driven Prion Protein mRNA Translation in H4 Neuroglioblastoma Cells. [Related pubchem assays: 1829 (Project Summary), 1814 (Primary HTS)]; type: functional; conditions: Homo sapiens
# [10] = target: T1, Calpain-2 catalytic subunit (Sus scrofa, UniProt P43367); assay: m-calpain protease blockers, concentration series – biochemical, fluorogenic peptide substrate, dose response (AID 1420); type: functional
# T1 sequence (P43367 whole entry): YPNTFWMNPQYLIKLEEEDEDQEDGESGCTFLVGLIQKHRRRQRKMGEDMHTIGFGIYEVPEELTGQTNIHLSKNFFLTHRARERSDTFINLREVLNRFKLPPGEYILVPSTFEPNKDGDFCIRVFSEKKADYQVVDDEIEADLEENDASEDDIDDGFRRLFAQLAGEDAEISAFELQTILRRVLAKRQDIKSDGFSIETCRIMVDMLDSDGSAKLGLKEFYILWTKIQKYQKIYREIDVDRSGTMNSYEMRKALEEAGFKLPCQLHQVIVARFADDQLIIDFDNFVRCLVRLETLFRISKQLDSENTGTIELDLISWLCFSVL
# [11] = tested on: INS1; assay: INS-1E survival protection against cytokine death – cell-based, luminescence, retest, dose response (AID 449756); type: functional; conditions: Rattus norvegicus;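 further: cell death triggered by IL-1 beta plus TNF-alpha plus IFN-gamma mixture; protective hits raise ATP signal compared with cytokine alone wells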
# [12] = microbe, parasite or virus in culture; type: functional; conditions: Mycobacterium tuberculosis
# [13] = luciferase reporter signal suppression in cells – H4 neuroglioma cells, luminescence, dose response (AID 1990); type: functional, cell-based
# [14] = Luminescence Cell-Based Dose Response HTS to Identify Inhibitors of 5'UTR Stem-Loop Driven Prion Protein mRNA Translation in H4 Neuroglioblastoma Cells. [Related pubchem assays: 1827 (Project Summary), 1813 (Primary HTS)]; type: functional
# [15] = fluconazole-exposed Candida albicans growth modulators – fluorescence, retest, confirmation (AID 2467); type: functional, cell-based
# [16] = NIH-3T3 fibroblast cytotoxicity, dose response, cytotoxicity control, cell-based, fluorescence, Alamar Blue, secondary assay (AID 2327); type: functional;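 further: NIH-3T3 mouse fibroblasts cultured with fluconazole at 8 µg/mL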
# [17] = Trypanosoma cruzi growth suppression in host cells – NIH3T3 host cells, beta-gal luminescence, confirmation (AID 2044); type: functional, cell-based;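 further: intracellular parasites grown in NIH/3T3 mouse fibroblasts as host cells; luminescent beta-galactosidase reporter signal from transgenic T. cruzi replicating inside host cells; inhibitors lower the luminescence signal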
# [18] = NIH3T3 cell viability loss – ATP luminescence, mouse fibroblasts, counter-screen, dose response (AID 2010); type: functional, cell-based;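 further: cells exposed to compound for about 90 hours before reading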
# [19] = alpha-synuclein stem-loop luciferase translation blockers – H4 neuroglioma cells, luminescence, confirmation (AID 1988); type: functional, cell-based
# Chain of Large T antigen (P03070 whole entry): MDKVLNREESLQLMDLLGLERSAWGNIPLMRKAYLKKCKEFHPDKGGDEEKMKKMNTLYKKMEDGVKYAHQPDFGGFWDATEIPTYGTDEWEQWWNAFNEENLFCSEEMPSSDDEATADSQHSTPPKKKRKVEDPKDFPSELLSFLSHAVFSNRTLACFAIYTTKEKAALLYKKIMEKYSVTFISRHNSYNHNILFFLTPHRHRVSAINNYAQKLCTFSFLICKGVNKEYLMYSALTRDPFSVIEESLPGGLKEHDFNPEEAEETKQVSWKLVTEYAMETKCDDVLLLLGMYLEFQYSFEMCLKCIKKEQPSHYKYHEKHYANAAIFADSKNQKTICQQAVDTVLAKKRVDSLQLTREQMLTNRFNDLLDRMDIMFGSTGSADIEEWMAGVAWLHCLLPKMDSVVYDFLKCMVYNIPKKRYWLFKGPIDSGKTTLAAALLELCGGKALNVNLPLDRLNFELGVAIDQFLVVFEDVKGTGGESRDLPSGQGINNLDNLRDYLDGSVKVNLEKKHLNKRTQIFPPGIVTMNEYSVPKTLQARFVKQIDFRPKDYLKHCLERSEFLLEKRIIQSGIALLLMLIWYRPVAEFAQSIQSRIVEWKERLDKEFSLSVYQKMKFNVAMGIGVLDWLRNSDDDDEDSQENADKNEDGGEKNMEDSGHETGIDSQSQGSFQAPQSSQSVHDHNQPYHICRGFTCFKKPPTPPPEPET
# Chain of FAD-linked sulfhydryl oxidase ALR (P55789 whole entry): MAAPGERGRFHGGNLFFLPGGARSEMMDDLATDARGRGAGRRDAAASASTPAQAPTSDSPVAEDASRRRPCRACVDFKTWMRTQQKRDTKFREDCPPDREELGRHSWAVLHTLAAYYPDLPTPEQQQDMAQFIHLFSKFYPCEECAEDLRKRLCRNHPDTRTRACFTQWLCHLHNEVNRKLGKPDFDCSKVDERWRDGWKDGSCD
# Chain of Genome polyprotein (P29990 2492-3391 limits assumed): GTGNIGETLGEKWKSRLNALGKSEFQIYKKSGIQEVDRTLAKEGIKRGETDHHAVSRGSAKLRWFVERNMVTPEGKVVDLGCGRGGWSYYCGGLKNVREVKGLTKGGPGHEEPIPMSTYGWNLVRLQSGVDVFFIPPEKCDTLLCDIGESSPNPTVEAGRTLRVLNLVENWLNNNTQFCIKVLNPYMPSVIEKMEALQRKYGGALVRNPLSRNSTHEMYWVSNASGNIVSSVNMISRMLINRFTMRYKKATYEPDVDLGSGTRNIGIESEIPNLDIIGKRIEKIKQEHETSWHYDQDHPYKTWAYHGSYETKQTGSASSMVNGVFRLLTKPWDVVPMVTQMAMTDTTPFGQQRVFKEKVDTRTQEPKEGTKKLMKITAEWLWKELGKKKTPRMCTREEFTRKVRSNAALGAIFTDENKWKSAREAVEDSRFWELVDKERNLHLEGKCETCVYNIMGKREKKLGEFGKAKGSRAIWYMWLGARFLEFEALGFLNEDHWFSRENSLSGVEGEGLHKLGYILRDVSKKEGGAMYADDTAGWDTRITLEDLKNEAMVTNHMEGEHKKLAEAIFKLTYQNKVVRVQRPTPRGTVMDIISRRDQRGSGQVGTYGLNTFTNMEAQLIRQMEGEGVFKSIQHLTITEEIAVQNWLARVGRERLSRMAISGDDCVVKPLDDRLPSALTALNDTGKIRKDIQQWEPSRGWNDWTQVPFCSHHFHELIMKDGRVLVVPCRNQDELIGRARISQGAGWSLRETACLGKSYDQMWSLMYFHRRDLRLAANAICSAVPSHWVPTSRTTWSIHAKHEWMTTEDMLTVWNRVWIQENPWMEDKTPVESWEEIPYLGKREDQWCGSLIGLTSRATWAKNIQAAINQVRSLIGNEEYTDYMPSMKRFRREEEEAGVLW
smiles,measurement,setting,value
COc1ccccc1N=C(S)N(Cc1ccco1)Cc1cc2ccc(C)c(C)c2nc1O,EC50,[1],20.2 µM (inconclusive)
same,EC50,[2],717 nM (inconclusive)
same,EC50,[3],0.525 µM (active)
same,EC50,[4],685 nM (active)
Cc1cc(C)cc(-n2ncc3c2CCCC3NC(=O)c2cc(C)n(C)n2)c1 (stereo not given),AC50,[5],4.51 µM (active)
Cc1ccc(CNc2ccc(N3CCOCC3)cc2)cc1,IC50,[6],5.62 µM (active)
O=C(O)CN1C(=O)/C(=C\c2ccccc2OCc2ccc(Cl)cc2)SC1=S,IC50,[7],43.3 µM (active)
O=C(Cc1cccs1)Nc1ccc(-c2nc3ccccc3[nH]2)cc1,EC50,[8],1.51 µM (active)
same,EC50,[9],236 nM (active)
CC(C)(C)c1cc(-c2nnc(S)n2-c2ccccc2F)[nH]n1,AC50,[5],2.1 µM (active)
O=[N+]([O-])c1ccc(N2CCN(c3ccc(O)cc3)CC2)cn1,IC50,[6],26.7 µM (active)
Oc1ccc(N2CCN(C(c3ccncc3)c3nnnn3C3CCCC3)CC2)cc1 (stereo not given),IC50,[6],5.61 µM (active)
CC(C)CCNc1nc2c(c(=O)n(Cc3cccc(F)c3)c(=O)n2C)n1C,IC50,[10],44.7 µM (not active)
CCN(CC)c1ccc(NC(=O)c2cccc(C)c2OC)c(C)c1,IC50,[6],32 µM (active)
COc1ccc(Nc2nc(N)c(C(=O)c3ccc(F)cc3)s2)cc1,EC50,[1],54.4 µM (inconclusive)
same,EC50,[2],2890 nM (inconclusive)
same,EC50,[3],37.5 µM (active)
same,EC50,[4],2800 nM (inconclusive)
COc1ccc(NC(=O)CN(C)C(=O)/C=C/c2ccc(S(=O)(=O)N3CCCCCC3)cc2)cc1,AC50,[11],24.3 µM (active)
CC1(C)Nc2ccccc2N(CC(=O)N2CCCCC2)C1=O,AC50,[5],1.96 µM (active)
Oc1ccccc1/C=N/NC(=S)NC1CC2CC1C1C=CCC21 (stereo not given),CC50,[12],13.9 µM (active)
CC1CCCC/C1=N\NC(=S)NCCc1ccccc1 (stereo not given),CC50,[12],> 40 µM (active)
CC(C)(C)C(=O)Nc1ccc(C(=O)N/N=C/c2ccccc2OC(=O)c2ccc(Cl)cc2)cc1,AC50,[11],2.83 µM (active)
COc1cc(/C=N/NC(=O)c2ccccc2O)ccc1OC(=O)CC1SC(=O)NC1=O (stereo not given),IC50,[6],35.1 µM (active)
CN(C)c1ccc(/C=N/NS(=O)(=O)c2ccc(Br)cc2)cc1,AC50,[5],33.5 µM (active)
Cc1ccc(N/N=C2\CCS(=O)(=O)c3sccc32)cc1,IC50,[10],> 50 µM (not active)
same,AC50,[5],0.311 µM (active)
CC(C)[C@H]1C(=O)O[C@H](C(C)C)C(=O)N(C)[C@@H](C(C)C)C(=O)O[C@H](C(C)C)C(=O)N(C)[C@@H](C(C)C)C(=O)O[C@H](C(C)C)C(=O)N1C [ENNIATIN B],EC50,[13],5.62 µM (active)
same,EC50,[14],> 120 µM (not active)
same,AC50,[11],2.99 µM (active)
same,EC50,[15],374 nM (active)
same,EC50,[16],3.22 µM (inconclusive)
same,EC50,[17],853 nM (active)
same,EC50,[18],3.66 µM (active)
same,EC50,[19],> 120 µM (not active)
